Source: patent publication US11584712B2, “Alkylamine-substituted perthiocarbamates as dual precursors to hydropersulfide and carbonyl sulfide” (The Johns Hopkins University, priority 2020, dated 2023)
Values joined by “and” are separate entries in the source; they are usually repeats but may differ in a detail not shown here. Equal values may be shown once. “Also recorded” adds a separate entry of the source.

What was measured:
[1] = Kinetics of decomposition of 7a and formation of 2a and 9 by UPLC-MS; format: physicochemical; details: 7a 20 μM, HPE-IAM 1 mM, ammonium bicarbonate buffer 50 mM with DTPA
Method: An aliquot of the reaction mixture was withdrawn at the specified time and quenched with 1% formic acid. The curves are the calculated best fits to a single-exponential function. The pseudo-first order rate constants for 7a, 9 and 2a are 0.59±0.02, 0.57±002, and 0.58±0.03 min^−1, respectively;

H9c2 cells [2] = assay: H9c2 cell protection from H2O2-mediated oxidative stress, SYTOX Green nucleic acid stain; format: cell-based, rat; details: 2 h pretreatment (150 μM for 8), then H2O2 200 μM
Method: Cells were seeded at a density of 1×10^4 cells/well. After 24 h, precursor 7b or byproduct 2b is added in 20 μL volumes using DMSO: H2O (<0.01% DMSO). Cells were incubated for 2 h before media was removed and the cells gently washed with PBS (pH 7.4). Then, 180 μL of fresh media and 20 μL H2O2 diluted in H2O were added before cells were incubated for an additional 1 h. After removing this media, 100 μL of media containing 3 μM SYTOX™ Green nucleic acid stain was added, and the cells incubated for 2 h before fluorescence readings were obtained at 485Ex/538Em (Step 1). Finally, an additional 100 μL of media containing 3 μM SYTOX™ and 0.2% Triton X-100 was added in order to permeabilize all cells and incubated for 1 h before fluorescence values measured (Step 2). The relative % cells surviving was calculated as a 100% minus the ratio of the fluorescence value of Step 1 over Step 2 (% cells surviving=100%−(FL538 (Step 1)/FL538 (Step 2)). Fluorescence values for vehicle-treated, non-H2O2-exposed wells were treated as background cell death and this value is added to the % cell survival for each subsequent group.
See Hofgaard et al., 2006, for general procedures. […] After removing this media, 100 μL of media containing 3 μM SYTOX® Green nucleic acid stain was added, and the cells incubated for 2 h before fluorescence readings were obtained at 485Ex/538Em (Step 1). […]

H9c2 cells [3] = assay: Cytotoxicity study with SYTOX Green nucleic acid stain; format: cell-based, rat; details: 24 h exposure, 0-150 μM
Method: H9c2(2-1) embryonic rat heart myoblasts were obtained from the American Type Culture Collection. Cells were grown in Dulbecco's […] (DMEM), supplemented with fetal bovine serum (FBS) 10%, penicillin 100 U/mL and streptomycin 100 μg/mL. They were propagated in T75-flasks, split before reaching 70-80% confluence (usually every day or every second day), and used within 11 passages. Cells were passaged to tissue culture treated 96-well microtiter plates at the specified density in 180 μL volumes and incubated for 24 h.
Cells were seeded at a density of 1×10^4 cells/well. […] Then, 100 μL of media containing 3 μM SYTOX™ Green nucleic acid stain (Invitrogen) was added and the cells were incubated for 2 h before fluorescence readings were obtained at 485Ex/538Em (Step 1). Finally, an additional 100 μL of media containing 3 μM SYTOX™ and 0.2% Triton X-100 was added in order to permeabilize all cells and incubated for 1 h before fluorescence values measured (Step 2). The relative % cells surviving was calculated as a 100% minus the ratio of the fluorescence value of Step 1 over Step 2 (% cells surviving=100%−(FL538 (Step 1)/FL538(Step 2)).
Cells were seeded at a density of 1×10^4 cells/well. […] The relative % cells surviving was calculated as a 100% minus the ratio of the fluorescence value of Step 1 over Step 2 (% cells surviving=100%−(FL538 (Step 1)/FL538(Step 2)).

[4] = RSSH generation in the presence of glutathione by UPLC-MS; format: physicochemical
Method: The reaction mixture was quenched with 1% formic acid and analyzed by UPLC-MS. Under these conditions, 42±1 μM of 2b formation is observed. RSSH-derived symmetrical dialkyl polysulfide labeled as S3 and S4 (R^1SSnSR^1, n=1-2), and unsymmetrical dialkyl polysulfide labeled as ′S2 to ′S4 (R^1SSnSR^3, n=0-2) formation are observed. 4-Hydroxyphenyl acetamide, labeled as asterisk, is used as internal standard in these experiments;

H9c2 cells [5] = assay: H9c2 cell protection from H2O2-mediated oxidative stress, Cell Counting Kit-8 (CCK-8); format: cell-based, rat; details: 2 h pretreatment (7b 50, 100, 150 μM; byproduct 150 μM), then H2O2 200 μM 2 h
Method: Cells were seeded at a density of 5×10^3 cells/well. After 24 h, precursor 7b or byproduct 2b was added at 20 μL volumes using DMSO:H2O (<0.01% DMSO as the vehicle). Cells were incubated for 2 h before media was removed and the cells gently washed with PBS (pH 7.4). Then, 180 μL of fresh media and 20 μL H2O2 diluted into H2O were added and cells were incubated for an additional 2 h. At the completion of H2O2 exposure, each well is carefully washed 3 times with PBS (pH 7.4) before adding 100 μL of media, without-FBS, containing 10% v/v CCK-8 (Dojindo) and incubated for 3 h prior to obtaining absorbance values at 450 nm. The relative % viability was calculated as 100 times the ratio of the Abs450 (pretreated, H2O2-exposed) over Abs450 (vehicle-treated, non H2O2-exposed).

Q: Which “pseudo-first order rate constant of RSS-HPE-AM 9 formation” value [1] does the source give for `CNCCN(C)C(=O)SSC(C)(C)C(NC(C)=O)C(=O)OC` (centres unmarked) [Precursor 7a, 2-(((3-acetamido-4-methoxy-2-methyl-4-oxobutan-2-yl)disulfannecarbonyl)(methyl)amino)-N-methylethan-1-aminium] here?
A: The value was 0.58 ± 0.02 min⁻¹ and 0.57 ± 002 min⁻¹.

Q: And the “pseudo-first order rate constant of byproduct 2a formation” value [1]?
A: Its value is 0.57 ± 0.02 min⁻¹ and 0.58 ± 0.03 min⁻¹.

Q: And the “pseudo-first order rate constant of precursor decomposition” value [1]?
A: The value was 0.59 ± 0.02 min⁻¹.

Q: For `COC(=O)C(NC(C)=O)C(C)(C)SSC(=O)N(C)CCN` (centres unmarked) [Precursor 7b, 2-(((3-acetamido-4-methoxy-2-methyl-4-oxobutan-2-yl)disulfannecarbonyl)(methyl)amino)ethan-1-aminium], which “protection against H2O2-mediated toxicity (SYTOX)” value (H9c2 cells [2]) is on record?
A: Its value is “protective effects”.

Q: What about the “cytotoxicity toward H9c2 cells” value (H9c2 cells [3]) of the same compound?
A: The value was “no toxicity; also recorded: not cytotoxic”.

Q: What about the “byproduct 2b formation” value ([4]; 7b 100 μM, glutathione 500 μM, pH 7.4 ammonium bicarbonate 50 mM with DTPA, 37° C., 45 min) of the same compound?
A: The value was 42 ± 1 µM.

Q: What about the “yield of byproduct 2b” value ([4]; in the presence of GSH, pH 7.4) of the same compound?
A: Its value is 42%.

Q: What about the “protection against H2O2-mediated toxicity (CCK-8 viability)” value (H9c2 cells [5]) of the same compound?
A: The value was “dose-dependent attenuation”.
